Measured values from ChEMBL document CHEMBL1201861, “Genomics of Drug Sensitity in Cancer screening data, Wellcome Trust Sanger Institute”.
pIC50: −log10 of the molar value. “And” between values parts separate entries of the source, which are not always exact repeats. Identical values can stand only once.

Experiments:
Test in all cases: cells
[1] = system: LCLC-97TM1; type: functional, cell-based, Homo sapiens;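 also: cell viability assay measuring growth inhibition of human LCLC-97TM1 cells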
Description: SANGER: Inhibition of human LCLC-97TM1 cell growth in a cell viability assay.

[2] = system: MC-IXC; type: functional, cell-based, Homo sapiens;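 also: growth inhibition of MC-IXC cells, read out with a cell viability assay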
Description: SANGER: Inhibition of human MC-IXC cell growth in a cell viability assay.

[3] = system: CAL-85-1; type: functional, cell-based; settings: Homo sapiens;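 also: growth inhibition of human CAL-85-1 cells, read out with a cell viability assay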
Description: SANGER: Inhibition of human CAL-85-1 cell growth in a cell viability assay.

[4] = system: no-11; type: functional, cell-based, Homo sapiens;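 also: growth inhibition of human NO-11 cells, read out with a cell viability assay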
Description: SANGER: Inhibition of human no-11 cell growth in a cell viability assay.

[5] = system: MDA-MB-157; type: functional, cell-based, Homo sapiens
Description: SANGER: Inhibition of human MDA-MB-157 cell growth in a cell viability assay.

[6] = system: SF-295; type: functional, cell-based, Homo sapiens; settings: read-out: IC50;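 also: growth inhibition of SF-295 cells, read out with a cell viability assay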
Description: SANGER: Inhibition of human SF295 cell growth in a cell viability assay.

[7] = system: LS-123; type: functional, cell-based, Homo sapiens
Description: SANGER: Inhibition of human LS-123 cell growth in a cell viability assay.

[8] = system: COR-L88; type: functional, cell-based; settings: Homo sapiens;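 also: growth inhibition of COR-L88 cells, read out with a cell viability assay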
Description: SANGER: Inhibition of human COR-L88 cell growth in a cell viability assay.

[9] = system: GAK; type: functional, cell-based, Homo sapiens;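 also: cell growth inhibition read out by a cell viability assay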
Description: SANGER: Inhibition of human GAK cell growth in a cell viability assay.

[10] = system: WM-115; type: functional, cell-based, Homo sapiens
Description: SANGER: Inhibition of human WM-115 cell growth in a cell viability assay.

[11] = system: RXF 393; type: functional, cell-based; settings: Homo sapiens;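 also: growth inhibition of human RXF 393 cells, read out with a cell viability assay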
Description: SANGER: Inhibition of human RXF393 cell growth in a cell viability assay.

[12] = system: HCC70; type: functional, cell-based, Homo sapiens;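 also: cell viability assay measuring how strongly the compound suppresses proliferation of HCC70 cells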
Description: SANGER: Inhibition of human HCC70 cell growth in a cell viability assay.

[13] = system: DU-4475; type: functional, cell-based; settings: Homo sapiens
Description: SANGER: Inhibition of human DU-4475 cell growth in a cell viability assay.

[14] = system: MKN-28; type: functional, cell-based, Homo sapiens;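 also: cell viability assay read-out, IC50 reflects suppression of growth of human MKN-28 cells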
Description: SANGER: Inhibition of human MKN28 cell growth in a cell viability assay.

[15] = system: ChaGo-K-1; type: functional, cell-based; settings: Homo sapiens;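 also: growth inhibition of ChaGo-K-1 cells, read out with a cell viability assay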
Description: SANGER: Inhibition of human ChaGo-K-1 cell growth in a cell viability assay.

[16] = system: NCI-H727; type: functional, cell-based, Homo sapiens;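 also: growth inhibition of human NCI-H727 cells, read out with a cell viability assay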
Description: SANGER: Inhibition of human NCI-H727 cell growth in a cell viability assay.

[17] = system: NCI-H2170; type: functional, cell-based, Homo sapiens;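 also: cell viability assay measuring growth inhibition of human NCI-H2170 cancer cells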
Description: SANGER: Inhibition of human NCI-H2170 cell growth in a cell viability assay.

[18] = system: RD; type: functional, cell-based, Homo sapiens
Description: SANGER: Inhibition of human RD cell growth in a cell viability assay.

[19] = system: ES8; type: functional, cell-based, Homo sapiens;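 also: growth inhibition of human ES8 cells, read out with a cell viability assay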
Description: SANGER: Inhibition of human ES8 cell growth in a cell viability assay.

[20] = system: TE-10; type: functional, cell-based, Homo sapiens;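 also: growth inhibition of TE-10 cells, measured by a cell viability assay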
Description: SANGER: Inhibition of human TE-10 cell growth in a cell viability assay.

[21] = system: NUGC-3; type: functional, cell-based, Homo sapiens;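 also: growth inhibition of human NUGC-3 cells, read out with a cell viability assay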
Description: SANGER: Inhibition of human NUGC-3 cell growth in a cell viability assay.

[22] = system: RCC10RGB; type: functional, cell-based, Homo sapiens;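 also: growth inhibition of human RCC10RGB cells, read out by a cell viability assay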
Description: SANGER: Inhibition of human RCC10RGB cell growth in a cell viability assay.

[23] = system: SHP77; type: functional, cell-based, Homo sapiens, SHP-77;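 also: growth inhibition of human SHP-77 cells measured by a cell viability assay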
Description: SANGER: Inhibition of human SHP-77 cell growth in a cell viability assay.

[24] = system: SCH; type: functional, cell-based, Homo sapiens;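 also: growth inhibition of human SCH cells, read out in a cell viability assay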
Description: SANGER: Inhibition of human SCH cell growth in a cell viability assay.

[25] = system: HOS; type: functional, cell-based, Homo sapiens;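 also: growth inhibition of human HOS cells, read out with a cell viability assay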
Description: SANGER: Inhibition of human HOS cell growth in a cell viability assay.

[26] = system: CAL-33; type: functional, cell-based, Homo sapiens;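 also: growth inhibition of CAL-33 cells, read out with a cell viability assay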
Description: SANGER: Inhibition of human CAL-33 cell growth in a cell viability assay.

[27] = system: MDA-MB-453; type: functional, cell-based, Homo sapiens
Description: SANGER: Inhibition of human MDA-MB-453 cell growth in a cell viability assay.

[28] = system: HCE-T; type: functional, cell-based, Homo sapiens;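 also: cell viability assay read-out, reporting inhibition of HCE-T cell growth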
Description: SANGER: Inhibition of human HCE-T cell growth in a cell viability assay.

[29] = system: KM12; type: functional, cell-based, Homo sapiens;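 also: KM12 cell growth inhibition, read out with a cell viability assay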
Description: SANGER: Inhibition of human KM12 cell growth in a cell viability assay.

[30] = system: NCI-H1304; type: functional, cell-based; settings: Homo sapiens;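 also: growth inhibition of the cancer cell line, measured in a cell viability assay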
Description: SANGER: Inhibition of human NCI-H1304 cell growth in a cell viability assay.

[31] = system: A-427; type: functional, cell-based, Homo sapiens;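 also: growth inhibition of human A-427 cells, read out by a cell viability assay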
Description: SANGER: Inhibition of human A427 cell growth in a cell viability assay.

[32] = system: A704; type: functional, cell-based, Homo sapiens;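 also: growth inhibition of human A704 cells, read out with a cell viability assay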
Description: SANGER: Inhibition of human A704 cell growth in a cell viability assay.

[33] = system: BB65-RCC; type: functional, cell-based, Homo sapiens;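 also: growth inhibition of the cell line, measured with a cell viability assay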
Description: SANGER: Inhibition of human BB65-RCC cell growth in a cell viability assay.

[34] = system: NCI-H747; type: functional, cell-based; settings: Homo sapiens;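 also: growth inhibition of human NCI-H747 cells, read out by a cell viability assay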
Description: SANGER: Inhibition of human NCI-H747 cell growth in a cell viability assay.

[35] = system: KNS-42; type: functional, cell-based, Homo sapiens;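 also: growth inhibition of KNS-42 cells, read out with a cell viability assay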
Description: SANGER: Inhibition of human KNS-42 cell growth in a cell viability assay.

[36] = system: DoTc2-4510; type: functional, cell-based, Homo sapiens
[37] = system: NCI-H2405; type: functional, cell-based, Homo sapiens;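 also: growth inhibition of the human cell line, read out with a cell viability assay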
Description: SANGER: Inhibition of human NCI-H2405 cell growth in a cell viability assay.

[38] = system: ML-2; type: functional, cell-based; settings: Homo sapiens;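 also: growth inhibition of ML-2 cells, measured with a cell viability readout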
Description: SANGER: Inhibition of human ML-2 cell growth in a cell viability assay.

[39] = system: Daoy; type: functional, cell-based, Homo sapiens;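 also: daoy cell growth inhibition, read out as cell viability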
Description: SANGER: Inhibition of human Daoy cell growth in a cell viability assay.

[40] = system: L-363; type: functional, cell-based; settings: Homo sapiens
Description: SANGER: Inhibition of human L-363 cell growth in a cell viability assay.

[41] = system: HL-60; type: functional, cell-based; settings: Homo sapiens;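 also: growth inhibition of human HL-60 cells, read out with a cell viability assay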
Description: SANGER: Inhibition of human HL-60 cell growth in a cell viability assay.

[42] = system: CAL-12T; type: functional, cell-based, Homo sapiens;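 also: growth inhibition of human CAL-12T cells, read out with a cell viability assay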
Description: SANGER: Inhibition of human CAL-12T cell growth in a cell viability assay.

[43] = system: H4; type: functional, cell-based; settings: Homo sapiens
Description: SANGER: Inhibition of human H4 cell growth in a cell viability assay.

[44] = system: KNS-81-FD; type: functional, cell-based, Homo sapiens;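 also: growth inhibition of KNS-81-FD cells, read out with a cell viability assay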
Description: SANGER: Inhibition of human KNS-81-FD cell growth in a cell viability assay.

[45] = system: TE-1; type: functional, cell-based, Homo sapiens;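 also: growth inhibition of the human TE-1 cell line, read out with a cell viability assay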
Description: SANGER: Inhibition of human TE-1 cell growth in a cell viability assay.

[46] = system: ES6; type: functional, cell-based, Homo sapiens;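 also: growth inhibition of human ES6 cells, read out with a cell viability assay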
Description: SANGER: Inhibition of human ES6 cell growth in a cell viability assay.

[47] = system: D-247MG; type: functional, cell-based, Homo sapiens
Description: SANGER: Inhibition of human D-247MG cell growth in a cell viability assay.

[48] = system: SW1463; type: functional, cell-based, Homo sapiens;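 also: growth inhibition of SW1463 cells, determined with a cell viability assay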
Description: SANGER: Inhibition of human SW1463 cell growth in a cell viability assay.

[49] = system: AM-38; type: functional, cell-based, Homo sapiens;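 also: growth inhibition of AM-38 cells of human origin, read out by a cell viability assay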
Description: SANGER: Inhibition of human AM-38 cell growth in a cell viability assay.

[50] = system: COLO-320-HSR; type: functional, cell-based; settings: Homo sapiens;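 also: growth inhibition of COLO-320-HSR cells, determined with a cell viability assay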
Description: SANGER: Inhibition of human COLO-320-HSR cell growth in a cell viability assay.

[51] = system: SK-UT-1; type: functional, cell-based, Homo sapiens;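 also: growth inhibition of SK-UT-1 cells, measured by a cell viability assay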
Description: SANGER: Inhibition of human SK-UT-1 cell growth in a cell viability assay.

[52] = system: SK-LMS-1; type: functional, cell-based, Homo sapiens;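 also: growth inhibition of human SK-LMS-1 cells, read out with a cell viability assay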
Description: SANGER: Inhibition of human SK-LMS-1 cell growth in a cell viability assay.

COc1cc(F)c(F)c(Nc2ccc(I)cc2F)c1NS(=O)(=O)C1(CC(O)CO)CC1 (centres undefined)
pIC50 ([1]; Homo sapiens, LCLC-97TM1): 6.55 | pIC50 ([2]; Homo sapiens, MC-IXC): < 5.30 | pIC50 [3]: 5.45 | pIC50 ([4]; Homo sapiens): < 5.30 | pIC50 ([5]; Homo sapiens, MDA-MB-157): < 5.30 | pIC50 ([6]; Homo sapiens, SF-295): < 5.30 | pIC50 ([7]; Homo sapiens, LS-123): 5.60 | pIC50 [8]: < 5.30 | pIC50 ([9]; Homo sapiens, GAK): 6.25 | pIC50 ([10]; Homo sapiens, WM-115): 6.38 | pIC50 [11]: 5.84 | pIC50 ([12]; Homo sapiens, HCC70): < 5.30 | pIC50 [13]: 7.74 | pIC50 ([14]; Homo sapiens, MKN-28): < 5.30 | pIC50 [15]: < 5.30 | pIC50 ([16]; Homo sapiens, NCI-H727): < 5.30 | pIC50 ([17]; Homo sapiens, NCI-H2170): < 5.30 | pIC50 ([18]; Homo sapiens, RD): 5.48 | pIC50 ([19]; Homo sapiens, ES8): < 5.30 | pIC50 ([20]; Homo sapiens, TE-10): < 5.30 | pIC50 ([21]; Homo sapiens, NUGC-3): 5.36 | pIC50 ([22]; Homo sapiens, RCC10RGB): < 5.30 | pIC50 ([23]; Homo sapiens, SHP77): < 5.30 | pIC50 ([24]; Homo sapiens, SCH): < 5.30 | pIC50 ([25]; Homo sapiens, HOS): < 5.30 | pIC50 ([26]; Homo sapiens, CAL-33): 5.81 | pIC50 ([27]; Homo sapiens, MDA-MB-453): < 5.30 | pIC50 ([28]; Homo sapiens, HCE-T): < 5.30 | pIC50 ([29]; Homo sapiens, KM12): < 5.30 | pIC50 [30]: < 5.30 | pIC50 ([31]; Homo sapiens, A-427): 5.35 | pIC50 ([32]; Homo sapiens, A704): 5.33 | pIC50 ([33]; Homo sapiens, BB65-RCC): 5.44 | pIC50 [34]: 6.18 | pIC50 ([35]; Homo sapiens, KNS-42): < 5.30 | pIC50 ([36]; Homo sapiens, DoTc2-4510): < 5.30 | pIC50 ([37]; Homo sapiens, NCI-H2405): 5.73 | pIC50 [38]: 6.30 | pIC50 ([39]; Homo sapiens, Daoy): < 5.30 | pIC50 [40]: < 5.30 | pIC50 [41]: 7.49 | pIC50 ([42]; Homo sapiens, CAL-12T): 5.97 | pIC50 [43]: 5.47 | pIC50 ([44]; Homo sapiens, KNS-81-FD): 5.62 | pIC50 ([45]; Homo sapiens, TE-1): < 5.30 | pIC50 ([46]; Homo sapiens, ES6): < 5.30 | pIC50 ([47]; Homo sapiens, D-247MG): < 5.30 | pIC50 ([48]; Homo sapiens, SW1463): 5.38 | pIC50 ([49]; Homo sapiens, AM-38): < 5.30 | pIC50 [50]: < 5.30

Cc1cc([C@@H](C)Nc2ccccc2C(=O)O)c2nc(N3CCOCC3)cc(=O)n2c1 [AZD-6482]
pIC50 ([1]; Homo sapiens, LCLC-97TM1): < 5.29 | pIC50 ([1]; lclc-97tm1): < 5.29 | pIC50 ([2]; Homo sapiens, MC-IXC): < 5.29 | pIC50 ([2]; mc-ixc): < 5.29 | pIC50 [3]: 5.64 | pIC50 [4]: < 5.29 | pIC50 ([5]; mda-mb-157): < 5.29 | pIC50 ([6]; sf-295): 5.56 and < 5.29 | pIC50 ([7]; ls-123): < 5.29 | pIC50 [8]: < 5.29 | pIC50 ([9]; gak): < 5.29 | pIC50 ([10]; wm-115): < 5.29 | pIC50 ([12]; hcc70): 5.78 and < 5.29 | pIC50 ([51]; sk-ut-1): 5.61 and < 5.29 | pIC50 [13]: < 5.29 | pIC50 ([14]; mkn-28): < 5.29 | pIC50 [15]: < 5.29 | pIC50 ([16]; nci-h727): < 5.29 | pIC50 ([17]; nci-h2170): < 5.29 | pIC50 ([18]; Homo sapiens, RD): < 5.29 | pIC50 ([18]; rd): < 5.29 | pIC50 ([19]; es8): < 5.29 | pIC50 ([20]; te-10): < 5.29 | pIC50 ([21]; nugc-3): < 5.29 | pIC50 ([22]; rcc10rgb): < 5.29 | pIC50 ([23]; shp-77): < 5.29 | pIC50 ([24]; sch): < 5.29 | pIC50 ([25]; hos): < 5.29 | pIC50 ([26]; Homo sapiens, CAL-33): 5.83 | pIC50 ([26]; cal-33): 5.59 | pIC50 ([27]; mda-mb-453): < 5.29 and 5.63 | pIC50 ([28]; hce-t): < 5.29 and 5.68 | pIC50 ([29]; Homo sapiens, KM12): < 5.29 | pIC50 ([29]; km12): < 5.29 | pIC50 [30]: < 5.29 | pIC50 ([52]; Homo sapiens, SK-LMS-1): 5.51 | pIC50 ([52]; sk-lms-1): 5.34 | pIC50 ([31]; a-427): 6.00 and < 5.29 | pIC50 ([32]; a704): < 5.29 and 5.48 | pIC50 ([33]; Homo sapiens, BB65-RCC): < 5.29 | pIC50 ([33]; bb65-rcc): < 5.29 | pIC50 [34]: < 5.29 | pIC50 ([35]; kns-42): < 5.29 | pIC50 ([36]; dotc2-4510): < 5.29 | pIC50 ([37]; nci-h2405): < 5.29 | pIC50 [38]: 5.45 | pIC50 ([39]; Homo sapiens, Daoy): < 5.29 | pIC50 ([39]; daoy): < 5.29 | pIC50 [40]: < 5.29 | pIC50 [41]: < 5.29 | pIC50 ([42]; cal-12t): < 5.29 | pIC50 ([44]; kns-81-fd): < 5.29 | pIC50 ([45]; Homo sapiens, TE-1): < 5.29 | pIC50 ([45]; te-1): < 5.29 | pIC50 ([46]; Homo sapiens, ES6): < 5.29 | pIC50 ([46]; es6): < 5.29 | pIC50 ([47]; d-247mg): < 5.29 | pIC50 ([48]; sw1463): < 5.29 | pIC50 ([49]; am-38): < 5.29 | pIC50 [50]: < 5.29

CN(Cc1cnc2nc(N)nc(N)c2n1)c1ccc(C(=O)N[C@@H](CCC(=O)O)C(=O)O)cc1 [METHOTREXATE]
pIC50 ([1]; Homo sapiens, LCLC-97TM1): < 6.70 | pIC50 ([2]; Homo sapiens, MC-IXC): < 6.70 | pIC50 [3]: < 6.70 | pIC50 ([4]; Homo sapiens): < 6.70 | pIC50 ([5]; Homo sapiens, MDA-MB-157): < 6.70 | pIC50 ([6]; Homo sapiens, SF-295): < 6.70 | pIC50 ([7]; Homo sapiens, LS-123): < 6.70 | pIC50 ([9]; Homo sapiens, GAK): < 6.70 | pIC50 ([10]; Homo sapiens, WM-115): < 6.70 | pIC50 [11]: < 6.70 | pIC50 ([12]; Homo sapiens, HCC70): < 6.70 | pIC50 ([51]; Homo sapiens, SK-UT-1): < 6.70 | pIC50 ([14]; Homo sapiens, MKN-28): < 6.70 | pIC50 [15]: < 6.70 | pIC50 ([16]; Homo sapiens, NCI-H727): < 6.70 | pIC50 ([17]; Homo sapiens, NCI-H2170): < 6.70 | pIC50 ([18]; Homo sapiens, RD): < 6.70 | pIC50 ([19]; Homo sapiens, ES8): < 6.70 | pIC50 ([20]; Homo sapiens, TE-10): < 6.70 | pIC50 ([21]; Homo sapiens, NUGC-3): < 6.70 | pIC50 ([22]; Homo sapiens, RCC10RGB): < 6.70 | pIC50 ([23]; Homo sapiens, SHP77): < 6.70 | pIC50 ([24]; Homo sapiens, SCH): < 6.70 | pIC50 ([25]; Homo sapiens, HOS): < 6.70 | pIC50 ([26]; Homo sapiens, CAL-33): < 6.70 | pIC50 ([27]; Homo sapiens, MDA-MB-453): < 6.70 | pIC50 ([28]; Homo sapiens, HCE-T): < 6.70 | pIC50 ([29]; Homo sapiens, KM12): 6.78 | pIC50 [30]: < 6.70 | pIC50 ([31]; Homo sapiens, A-427): < 6.70 | pIC50 ([32]; Homo sapiens, A704): < 6.70 | pIC50 ([33]; Homo sapiens, BB65-RCC): < 6.70 | pIC50 [34]: < 6.70 | pIC50 ([35]; Homo sapiens, KNS-42): < 6.70 | pIC50 ([36]; Homo sapiens, DoTc2-4510): < 6.70 | pIC50 ([37]; Homo sapiens, NCI-H2405): < 6.70 | pIC50 [38]: 8.30 | pIC50 ([39]; Homo sapiens, Daoy): < 6.70 | pIC50 [40]: 7.85 | pIC50 [41]: 7.61 | pIC50 ([42]; Homo sapiens, CAL-12T): < 6.70 | pIC50 [43]: < 6.70 | pIC50 ([44]; Homo sapiens, KNS-81-FD): < 6.70 | pIC50 ([45]; Homo sapiens, TE-1): < 6.70 | pIC50 ([46]; Homo sapiens, ES6): < 6.70 | pIC50 ([47]; Homo sapiens, D-247MG): < 6.70 | pIC50 ([48]; Homo sapiens, SW1463): < 6.70 | pIC50 ([49]; Homo sapiens, AM-38): < 6.70 | pIC50 [50]: 7.28
